# Measurements from article doi:10.1101/2021.05.05.442810v1 (biorxiv, 2021).
# Target: truncated variant of M. xanthus ParB (NB and DNA-binding domains) (Myxococcus xanthus, UniProt Q1CVJ4)
# Conditions: formed from CTPγS in crystallization; Mg2+; with thiophosphate; pH 8.5
compound,measurement,value
Nc1ccn([C@@H]2O[C@H](COP(=O)(O)OP(=O)(O)O)[C@@H](O)[C@H]2O)c(=O)n1 [CDP],X-ray crystal structure (1.9 Å),we did not detect CTPγS but CDP
